Experiments:
HCT116 cells = experiment: Colon Carcinoma Xenograft Efficacy Study; type: in vivo, mice; details: intraperitoneal, twice daily, vs vehicle (FIG. 11)
Procedure: Female scid/bg mice, approximately 6 weeks of age, were implanted subcutaneously on the right flank with 5×10^6 HCT116 cells per mouse in a volume of 100 uL of sterile PBS. When tumors reached a volume of 50-100 mm^3, mice were randomized to groups of n=10 to receive either vehicle or test compound delivered twice daily by intraperitoneal injection. Tumors were measured three times per week using Vernier calipers and tumor volume calculated using the formula: Volume=(Length×Width^2/2), where length and width are the longest perpendicular sides of the tumor. Dosing continued twice daily until control tumors reached a size of 2000 mm^3 Statistical comparisons were made using a 2-way ANOVA with Bonferroni post-test.

P493-6 (myc "on") cells = experiment: Cell Proliferation Assay; type: cell-based; details: P493-6, 72 h, read-out: Cell prolif P493 72 h IC50, P493 cells, 72 h
Summary of the method: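 Read-out: either Cell Titer Glo or Guava Viacount flow analysis after 72 h compound treatment of myc-on P493-6 cells (10,000/well, RPMI with 10% FBS) at 37 °C. DMSO held at 0.5% final.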

Q: With O=C(CCN1CCOCC1)OCC(C(=O)Nc1nnc(CCCCc2nnc(NC(=O)C(COC(=O)CCN3CCOCC3)c3ccccc3)s2)s1)c1ccccc1 (centres unmarked) [Compound 188, {[5,5′-(butane-1,4-diyl)-bis(1,3,4-thiadiazole-5,2-diyl)]-bis(azanediyl)}-bis(3-oxo-2-phenylpropane-3,1-diyl)-bis(3-morpholinopropanoate)] as the compound, how does the tumor size (HCT116 cells) read?
A: reduced tumor size

Q: What about the IC50 (P493-6 (myc "on") cells) of the same compound?
A: 460 nM

Reference: US20150004134A1, “TREATMENT OF CANCER WITH HETEROCYCLIC INHIBITORS OF GLUTAMINASE” (Calithera Biosciences, Inc., priority 2012, published 2015)
